Data taken from ChEMBL document CHEMBL3885881, “DrugMatrix”.

Organism: Rattus norvegicus
Assay: DrugMatrix - Regimen: Daily Repeat
Type: toxicity, organism-based, Sprague-Dawley
Design: regimen Daily Repeat, gender Male, age 6-8 weeks
Settings: in vivo, sc, route subcutaneous, […]; for ABSOLUTE BASOPHIL / ABSOLUTE EOSINOPHIL / ABSOLUTE LYMPHOCYTE / ABSOLUTE MONOCYTE / ABSOLUTE SEGMENTED NEUTROPHIL / BASOPHIL / EOSINOPHIL / ERYTHROCYTE COUNT / HEMATOCRIT / HEMOGLOBIN / LEUKOCYTE COUNT / LYMPHOCYTE / MEAN CORPUSCULAR HEMOGLOBIN / MEAN CORPUSCULAR HEMOGLOBIN CONCENTRATION / MEAN CORPUSCULAR VOLUME / MONOCYTE / NEUTROPHIL / NUCLEATED RED BLOOD CELLS / PLATELET COUNT: tissue Blood; for ALANINE AMINOTRANSFERASE / ALBUMIN / ALKALINE PHOSPHATASE / ASPARTATE AMINOTRANSFERASE / BLOOD UREA NITROGEN / CARBON DIOXIDE / CHLORIDE / CHOLESTEROL / CREATINE PHOSPHOKINASE / CREATININE / GLUCOSE / LACTATE DEHYDROGENASE / LIPASE / PHOSPHORUS / POTASSIUM / SODIUM / TOTAL BILIRUBIN / TOTAL PROTEIN / URIC ACID: tissue Plasma
[1] = 0.07 mg/kg, 72 h, dose level Low, time 3 day
[2] = 0.07 mg/kg, 120 h, dose level Low, time 5 day
[3] = 72 h, dose 2.5 mg/Kg, dose level High, time 3 day
[4] = 120 h, dose 2.5 mg/Kg, dose level High, time 5 day

CC1(C)O[C@@H]2C[C@H]3[C@@H]4C[C@H](F)C5=CC(=O)C=C[C@]5(C)[C@@]4(F)[C@@H](O)C[C@]3(C)[C@]2(C(=O)CO)O1 [FLUOCINOLONE ACETONIDE]
ABSOLUTE BASOPHIL [1]: 0 CELLS/uL | ABSOLUTE EOSINOPHIL [1]: 53 CELLS/uL | ABSOLUTE LYMPHOCYTE [1]: 3882.67 CELLS/uL | ABSOLUTE MONOCYTE [1]: 130 CELLS/uL | ABSOLUTE SEGMENTED NEUTROPHIL [1]: 1667.67 CELLS/uL | BASOPHIL [1]: 0% | EOSINOPHIL [1]: 1% | ERYTHROCYTE COUNT [1]: 5.77 x10E6/uL | HEMATOCRIT [1]: 37.27% | HEMOGLOBIN [1]: 13.5 G/DL | LEUKOCYTE COUNT [1]: 5.73 x10E3/uL | LYMPHOCYTE [1]: 66% | MEAN CORPUSCULAR HEMOGLOBIN [1]: 23.4 pg | MEAN CORPUSCULAR HEMOGLOBIN CONCENTRATION [1]: 36.23 G/DL | MEAN CORPUSCULAR VOLUME [1]: 64.67 fL | MONOCYTE [1]: 2.33% | NEUTROPHIL [1]: 30.67% | NUCLEATED RED BLOOD CELLS [1]: 0.67 /100WBC | PLATELET COUNT [1]: 1436 x10E3/uL | ALANINE AMINOTRANSFERASE [1]: 77.67 u/L | ALBUMIN [1]: 5.23 G/DL | ALKALINE PHOSPHATASE [1]: 414.67 u/L | ASPARTATE AMINOTRANSFERASE [1]: 135.67 u/L | BLOOD UREA NITROGEN [1]: 21.33 mg/dL | CARBON DIOXIDE [1]: 24.33 mmol/L | CHLORIDE [1]: 102 MEQ/L | CHOLESTEROL [1]: 107 mg/dL | CREATINE PHOSPHOKINASE [1]: 290 u/L | CREATININE [1]: 0.31 mg/dL | GLUCOSE [1]: 275.67 mg/dL | LACTATE DEHYDROGENASE [1]: 425.33 u/L | LIPASE [1]: 10.67 u/L | PHOSPHORUS [1]: 13.03 mg/dL | POTASSIUM [1]: 5.79 MEQ/L | SODIUM [1]: 145.07 MEQ/L | TOTAL BILIRUBIN [1]: 0.27 mg/dL | TOTAL PROTEIN [1]: 7.07 G/DL | URIC ACID [1]: 1.47 mg/dL | ABSOLUTE BASOPHIL [2]: 0 CELLS/uL | ABSOLUTE EOSINOPHIL [2]: 0 CELLS/uL | ABSOLUTE LYMPHOCYTE [2]: 1551.33 CELLS/uL | ABSOLUTE MONOCYTE [2]: 16 CELLS/uL | ABSOLUTE SEGMENTED NEUTROPHIL [2]: 3699.33 CELLS/uL | BASOPHIL [2]: 0% | EOSINOPHIL [2]: 0% | ERYTHROCYTE COUNT [2]: 6.67 x10E6/uL | HEMATOCRIT [2]: 40.23% | HEMOGLOBIN [2]: 14.73 G/DL | LEUKOCYTE COUNT [2]: 5.27 x10E3/uL | LYMPHOCYTE [2]: 32% | MEAN CORPUSCULAR HEMOGLOBIN [2]: 22.1 pg | MEAN CORPUSCULAR HEMOGLOBIN CONCENTRATION [2]: 36.6 G/DL | MEAN CORPUSCULAR VOLUME [2]: 60.37 fL | MONOCYTE [2]: 0.33% | NEUTROPHIL [2]: 67.67% | NUCLEATED RED BLOOD CELLS [2]: 1 /100WBC | PLATELET COUNT [2]: 1631 x10E3/uL | ALANINE AMINOTRANSFERASE [2]: 131 u/L | ALBUMIN [2]: 4.93 G/DL | ALKALINE PHOSPHATASE [2]: 313 u/L | ASPARTATE AMINOTRANSFERASE [2]: 231.67 u/L | BLOOD UREA NITROGEN [2]: 20.33 mg/dL | CARBON DIOXIDE [2]: 24 mmol/L | CHLORIDE [2]: 102.33 MEQ/L | CHOLESTEROL [2]: 92.33 mg/dL | CREATINE PHOSPHOKINASE [2]: 1505.67 u/L | CREATININE [2]: 0.26 mg/dL | GLUCOSE [2]: 389.33 mg/dL | LACTATE DEHYDROGENASE [2]: 225 u/L | LIPASE [2]: 10 u/L | PHOSPHORUS [2]: 13.57 mg/dL | POTASSIUM [2]: 5.94 MEQ/L | SODIUM [2]: 147.93 MEQ/L | TOTAL BILIRUBIN [2]: 0.2 mg/dL | TOTAL PROTEIN [2]: 6.7 G/DL | URIC ACID [2]: 2.67 mg/dL | ABSOLUTE BASOPHIL [3]: 0 CELLS/uL | ABSOLUTE EOSINOPHIL [3]: 0 CELLS/uL | ABSOLUTE LYMPHOCYTE [3]: 365.67 CELLS/uL | ABSOLUTE MONOCYTE [3]: 12.67 CELLS/uL | ABSOLUTE SEGMENTED NEUTROPHIL [3]: 5188.33 CELLS/uL | BASOPHIL [3]: 0% | EOSINOPHIL [3]: 0% | ERYTHROCYTE COUNT [3]: 4.97 x10E6/uL | HEMATOCRIT [3]: 32.1% | HEMOGLOBIN [3]: 11.87 G/DL | LEUKOCYTE COUNT [3]: 5.57 x10E3/uL | LYMPHOCYTE [3]: 6.67% | MEAN CORPUSCULAR HEMOGLOBIN [3]: 24.1 pg | MEAN CORPUSCULAR HEMOGLOBIN CONCENTRATION [3]: 37.03 G/DL | MEAN CORPUSCULAR VOLUME [3]: 64.97 fL | MONOCYTE [3]: 0.33% | NEUTROPHIL [3]: 93% | NUCLEATED RED BLOOD CELLS [3]: 0.67 /100WBC | PLATELET COUNT [3]: 1062 x10E3/uL | ALANINE AMINOTRANSFERASE [3]: 159.67 u/L | ALBUMIN [3]: 4.33 G/DL | ALKALINE PHOSPHATASE [3]: 320.67 u/L | ASPARTATE AMINOTRANSFERASE [3]: 309.33 u/L | BLOOD UREA NITROGEN [3]: 24.33 mg/dL | CARBON DIOXIDE [3]: 26 mmol/L | CHLORIDE [3]: 97 MEQ/L | CHOLESTEROL [3]: 133 mg/dL | CREATINE PHOSPHOKINASE [3]: 322 u/L | CREATININE [3]: 0.18 mg/dL | GLUCOSE [3]: 463 mg/dL | LACTATE DEHYDROGENASE [3]: 822 u/L | LIPASE [3]: 9.67 u/L | PHOSPHORUS [3]: 10.6 mg/dL | POTASSIUM [3]: 4.57 MEQ/L | SODIUM [3]: 142.47 MEQ/L | TOTAL BILIRUBIN [3]: 0.27 mg/dL | TOTAL PROTEIN [3]: 5.4 G/DL | URIC ACID [3]: 1.03 mg/dL | ABSOLUTE BASOPHIL [4]: 0 CELLS/uL | ABSOLUTE EOSINOPHIL [4]: 0 CELLS/uL | ABSOLUTE LYMPHOCYTE [4]: 450 CELLS/uL | ABSOLUTE MONOCYTE [4]: 219.33 CELLS/uL | ABSOLUTE SEGMENTED NEUTROPHIL [4]: 11864 CELLS/uL | BASOPHIL [4]: 0% | EOSINOPHIL [4]: 0% | ERYTHROCYTE COUNT [4]: 5.21 x10E6/uL | HEMATOCRIT [4]: 33.17% | HEMOGLOBIN [4]: 12.2 G/DL | LEUKOCYTE COUNT [4]: 12.53 x10E3/uL | LYMPHOCYTE [4]: 3.67% | MEAN CORPUSCULAR HEMOGLOBIN [4]: 23.37 pg | MEAN CORPUSCULAR HEMOGLOBIN CONCENTRATION [4]: 36.87 G/DL | MEAN CORPUSCULAR VOLUME [4]: 63.37 fL | MONOCYTE [4]: 1.67% | NEUTROPHIL [4]: 94.67% | NUCLEATED RED BLOOD CELLS [4]: 0 /100WBC | PLATELET COUNT [4]: 587.67 x10E3/uL | ALANINE AMINOTRANSFERASE [4]: 194 u/L | ALBUMIN [4]: 3.57 G/DL | ALKALINE PHOSPHATASE [4]: 289.67 u/L | ASPARTATE AMINOTRANSFERASE [4]: 380.33 u/L | BLOOD UREA NITROGEN [4]: 24.33 mg/dL | CARBON DIOXIDE [4]: 17.67 mmol/L | CHLORIDE [4]: 95 MEQ/L | CHOLESTEROL [4]: 90 mg/dL | CREATINE PHOSPHOKINASE [4]: 1694.33 u/L | CREATININE [4]: 0.29 mg/dL | GLUCOSE [4]: 635 mg/dL | LACTATE DEHYDROGENASE [4]: 429 u/L | LIPASE [4]: 10 u/L | PHOSPHORUS [4]: 14.6 mg/dL | POTASSIUM [4]: 6.12 MEQ/L | SODIUM [4]: 139.3 MEQ/L | TOTAL BILIRUBIN [4]: 0.2 mg/dL | TOTAL PROTEIN [4]: 4.67 G/DL | URIC ACID [4]: 3.2 mg/dL
